Experimental data from US6596727B1, “Substituted pyrimidines, processes for their preparation, and their use as pesticides and fungicides” (priority 1992, dated 2003).

What follows are molecules tested on larvae (L3) of the species Nilaparvata lugens (assay: Nilaparvata lugens larvae test on dipped rice plants). Conditions: 250 ppm of the active ingredient, 21° C., after 4 days.
Type: in vivo
Source text: Rice seed is placed into glass culture dishes containing cotton wool and germinated under moist conditions and, after the stem has grown to a length of approx. 8 cm, it is dipped together with the leaves into the test solution. The test solution is allowed to run off from the treated rice plants, and the plants are transferred to culture containers and populated with batches of 10 larvae (L3) of the species Nilaparvata lugens, the individual test concentrations being kept separate from each other. After the sealed culture containers have been kept at 21° C., the mortality of the cicada larvae can be determined after 4 days.
Under these test conditions, the compounds according to Example No. 9, 25, 30, 93, 99, 432 have a 100% activity at a test concentration of 250 ppm of the active ingredient.
`COCc1ncnc(NC2CCC(C(C)(C)C)CC2)c1OC` (mixture of isomers) [Example 9] was tested, and the “mortality of the cicada larvae (activity)” value (“mortality” below) was 100%. In the case of `COCc1ncnc(NC2CCC(c3ccccc3)CC2)c1OC` (mixture of isomers) [Example 93], the “mortality” value is reported as 100%. In the case of `COCc1ncnc(NC2CCC(C(C)C)CC2)c1OC` (stereo not drawn) [Example 25], the “mortality” value is reported as 100%. For `CCC(C)(C)C1CCC(Nc2ncnc(COC)c2OC)CC1` (stereo not drawn) [Example 30], the “mortality” value was 100%. With `CCc1ncnc(OC2CCC(c3ccc(OC(C)(C)C)cc3)CC2)c1Cl` (stereo not drawn) [Example 432] the “mortality” value was 100%.

The molecules below were run on tropical cattle ticks (Boophilus microplus) (assay: In vitro test with tropical cattle ticks, inhibition of oviposition). Conditions: 500 ppm active substance; females immersed five minutes; two weeks after the treatment.
Type: in vivo
Protocol: In vitro test with tropical cattle ticks (Boophilus microplus)
To prepare a suitable preparation of active substance, the active substances were dissolved at a concentration of 10% (w/v) in a mixture composed of dimethylformamide (85 g), nonylphenol polyglycol ether (3 g) and oxethylated castor oil (7 g), and the resulting emulsion concentrates were diluted with water to a test concentration of 500 ppm.
Batches of ten females of the tropical tick Boophilus microplus which had sucked themselves full were immersed for five minutes in these active substance dilutions. The ticks were subsequently dried on filter paper and then attached, by their backs, to an adhesive film for the purpose of oviposition. The ticks were kept in an incubator at 28° C. and an atmospheric humidity of 90%.
As a control, female ticks were merely immersed in water. The inhibition of oviposition two weeks after the treatment was used to assess the effectiveness. 100% mean that no ticks have deposited eggs, 0% means that all ticks have deposited eggs.
Molecule `CC(C)(C)C1CCC(Nc2ncnc3c2CCCC3)CC1` (mixture of isomers) [Example 10] has an inhibition of oviposition of 100%. In the case of `CC(C)(C)C1CCC(Oc2ncnc3c2CCCC3)CC1` (stereo not drawn) [Example 19], the inhibition of oviposition is reported as 100%. `CCC(C)(C)C1CCC(Nc2ncnc(COC)c2OC)CC1` (stereo not drawn) [Example 30] was tested, and the inhibition of oviposition was 100%. Work on `c1ccc(C2CCC(Oc3ncnc4c3CCCC4)CC2)cc1` (stereo not drawn) [Example 106] yielded an inhibition of oviposition of 100%.
